# Measurements: the OPERA property sets (Mansouri et al. 2018)
SMILES,boiling point [°C],log10 vapour pressure (mmHg),melting point [°C],log10 Henry constant (atm·m³/mol),ready biodegradability,log10 Koa,log10 biodegradation half-life (days),log10 Koc (L/kg)
C=CC=CC=C,78,1.95,-12,,,,,
CCCCCCC(=O)CCC,206,,-9,,,,,
CC(C)(C)C1=CC(=O)C=C(C(C)(C)C)C1=O,,,66,,,,,
COC(=O)Cn1ccnc1[N+](=O)[O-],,,96,,,,,
Nc1cc2ccccc2cc1N,,,199,,,,,
CN/C(=N\C#N)NCCSCc1nc[nH]c1C,,,142,,,,,
O=CC1CC=CCC1 (centres undefined),105,,2,,,,,
O=C(O)CBr,208,-0.926,50,-8.19,,,,
Sc1ccccc1S,238,,28.5,,,,,
Fc1ccccc1-c1ccccc1,248,,73.5,,,,,
CCCCCCCCCCCCCCCCCCC1CO1 (centres undefined),,,,,readily biodegradable,,,
COc1ccc(C(=O)c2coc(S(N)(=O)=O)c2)cc1,,,181,,,,,
O=c1cccccc1,,,-7,,,,,
Cc1ccc(C)c(Br)c1,199,,9,,,,,
CC(c1ccccc1)c1ccc(O)c(C(C)c2ccccc2)c1C(C)c1ccccc1 (centres undefined),,,,,not readily biodegradable,,,
Clc1ccc(-c2c(Cl)cccc2Cl)cc1,,,,-3.7,,7.72,,
c1ccc2c(c1)c1ccccc1c1ccccc21,425,-7.68,199,,,,2.58,
CCCCCCCCCI,,-1.56,,,,,,
OCC(F)F,95.5,,-28.2,,,,,
O=C(O)c1cccc(S(=O)(=O)O)c1,,,,,not readily biodegradable,,,
COc1cc(C=C2CCCC(=Cc3ccc(O)c(OC)c3)C2=O)ccc1O,,,178,,,,,
CCCCCCCCCCCCCCCCCCN(C)C,,,22.9,,,,,

SMILES,boiling point [°C],log10 vapour pressure (mmHg),melting point [°C],log10 Henry constant (atm·m³/mol),ready biodegradability,log10 Koa,log10 biodegradation half-life (days),log10 Koc (L/kg)
COc1cc(O)c2c(=O)c(-c3ccc(O)cc3)coc2c1,,,240,,,,,
O=C(O)C(F)(F)C(F)(F)C(F)(F)F,121,0.804,-17.5,,,,,
C[C@]12CCC(=O)C=C1CC[C@@H]1[C@@H]2CC[C@]2(C)C(=O)CC[C@@H]12,,,158,,,,,
Oc1ccc(Br)c2cccnc12,,,124,,,,,
CC(C)CCOC(=O)C(C)C,168,,,,,,,
O=C1CCc2cc(OCCCCc3nnnn3C3CCCCC3)ccc2N1,,,160,,,,,
CC1=CCCC(C)(C)C1/C=C/C(C)=C/C=C/C(C)=C/C=C/C=C(C)/C=C/C=C(C)/C=C/C1=C(C)CCCC1(C)C (centres undefined),,,188,,,,,
COc1cc(N)c2c(c1N)C(=O)c1ccccc1C2=O,,,242,,,,,
CC12CCC(C(Br)C1=O)C2(C)C (centres undefined),274,,76.5,,,,,
Cc1ccccc1C(=O)Cl,214,,,,,,,
COC(=O)CSc1cc(/N=c2\sc(=O)n3n2CCCC3)c(F)cc1Cl,,-8.48,106,,,,,
C=CC(CC)CC,84.1,1.91,-128,,,,,
O=[N+]([O-])c1ccc(Sc2ccccc2)cc1,,,56,,,,,
OCC(F)(F)C(F)(F)C(F)(F)C(F)(F)C(F)(F)C(F)(F)C(F)(F)C(F)(F)C(F)(F)C(F)F,,,,,not readily biodegradable,,,
O=[N+]([O-])c1cc(F)cc(F)c1,176,,17,,,,,
c1ccc2c(c1)cc1ccc3c4ccccc4cc4ccc2c1c43,,,317,,,,,
O=C1CC[C@@]2(O)[C@H]3Cc4ccc(O)c5c4[C@@]2(CCN3CC2CC2)[C@H]1O5,,,169,,,,,
CNCCCC12CCC(c3ccccc31)c1ccccc12,,,93,,,,,
O=C(O)c1ccc(C(=O)O)o1,,,342,,,,,
NC(=O)c1cccc(Br)c1,,,155,,,,,
FC(F)(F)C(F)(F)C(F)(F)C(F)(F)C(F)(F)C(F)(F)F,56.6,2.34,-87.1,,,,,
CCCCCO[N+](=O)[O-],157,0.705,,-2.78,,,,

SMILES,boiling point [°C],log10 vapour pressure (mmHg),melting point [°C],log10 Henry constant (atm·m³/mol),ready biodegradability,log10 Koa,log10 biodegradation half-life (days),log10 Koc (L/kg)
O=C(C=Cc1ccccc1)NCCO,,,101,,,,,
C1CCCCCCCCCCC1,247,,60.4,,not readily biodegradable,,,
C1CN1P1(N2CC2)=NP(N2CC2)(N2CC2)=NP(N2CC2)(N2CC2)=N1,,,148,,,,,
CC1=CC(=O)C[C@H](C)C1,208,,,,,,,
CCCCCCOc1ccc(N)cc1,,,44,,,,,
Cc1[nH]c2ccccc2c1C,285,,106,,,,,
C=Cc1ccncc1,,0.23,,,not readily biodegradable,,,1.18
N=C(N)NC(=N)N,,,136,,,,,
CCCCCOC(=O)COc1cc(N2C(=O)C3=C(CCCC3)C2=O)c(F)cc1Cl,,,89,,,,,
Cc1cc(O)ccc1[N+](=O)[O-],,,128,-7.79,not readily biodegradable,,,
O=C(O)c1cc(Cl)ccc1O,,,172,,,,,
Nc1cccc2nsnc12,,,68,,,,,
Brc1ccc(Br)cc1,218,-1.24,87.3,,not readily biodegradable,5.21,,
ClC1=C(Cl)C2(Cl)C3CCC4C(CCC3C1(Cl)C2(Cl)Cl)C1(Cl)C(Cl)=C(Cl)C4(Cl)C1(Cl)Cl (centres undefined),,,,,not readily biodegradable,,,
OC1c2ccccc2Oc2ccccc21,,,128,,,,,
Cc1cc(C)nc(C)c1,171,0.298,-46,,,,,
Oc1ccc(O)c(O)c1,,,140,,,,,
Cc1cc2ccccc2cn1,249,,68,,,,,
Nc1ccc(-c2ccc(Cl)cc2)cc1,,,134,,,,,
CC(C)COC(=O)CCCCC(=O)OCC(C)C,279,,-20,,,,,
C=COCC,35.5,2.71,-116,,,,,
CCOC(=O)c1ccc(Br)cc1,263,,,,,,,
